According to patent US10344330B2, “Glatiramer acetate response biomarker mRNA potency assay” (Mylan Inc., priority 2013, dated 2019):

Key:
Format in all cases: cell-based, mouse
[1] = tested on: IL-5 secreted by LN cells; test: IL-5 secretion by GA-stimulated LN cells, MSD 9-plex ELISA (Example II); conditions: for IL-5 secretion response ratio (treated cell medium to control DCCM1 medium): 21 hr
Experimental: Animals at 8 weeks of age were immunized by injection into four footpads using a 1 mL syringe with a 27-G, 1⁄2-inch needle. […] Ten days post-immunization, immunized animals were sacrificed via cervical dislocation. […] The LN cells were isolated by pressing the LN with the plunger end of a sterile syringe. […] Trypan blue exclusion method was used to determine the cell density of viable cells in the suspension. […] Cat. […] LN cells were plated into a 24-well tissue culture plate for drug stimulation. […] Cell debris was removed by centrifugation at ca. 200×g for 10 minutes at 4° C. Cytokines secreted by treated cells were determined on the day of collection by ELISA using mouse TH 1/TH 2 9-Plex Tissue Culture Kit (Meso Scale Discovery; Cat No. […]-2, Lot #: K0032839) which detects Th1 cytokines (IFN-γ, IL-2, IL-12, IL-1β, TNF-α, CXCL1) and Th2 cytokines (IL-4, IL-5 and IL-10). For IFN-γ, culture media also were assayed at 45 hours using mouse IFN-γ Tissue Culture Kit (Meso Scale Discovery; Cat No. […] For the positive control, 0.5 mL of LN cells (5×10^6 cells/well) were treated with 0.5 mL of ConA (5 μg/mL). For the negative control, 0.5 mL of LN cells (5×10^6 cells/well) were treated with 0.5 mL of MBP (20 μg/mL). The LN cells with mock stimulation (enriched DCCM1 medium) were used to monitor the background level of a cytokine. For the cytokine assays, calibration standards or samples were incubated in the MULTI-SPOT or the SINGLE-SPOT plate and each cytokine bound to its corresponding capture antibody. All test samples were run in duplicate. The amount of each cytokine on its distinct spot was quantified using a cytokine-specific detection antibody labeled with MSD SULFO-TAGTM reagent. Electrochemiluminescent signals from immobilized SULFO-TAGTM-labeled complexes on each spot from each well were captured by the MSD SECTOR Imager 6000, which produces a signal directly proportional to the amount of captured cytokine in a test sample. The levels of cytokines in test samples were derived by interpolation from calibration curves with calibration standards of known concentrations using reagents provided with the MSD kits. Kits were used according to the manufacturer's protocols. […] Data are expressed as a response ratio of cytokine concentration in treated cell medium to control DCCM1 medium.

[2] = tested on: IL-4 mRNA in LN cells; test: IL-4 mRNA by real-time PCR in LN cells of GA-immunized CD-1, BALB/cByJ, SJL/J mice (Example III); conditions: 6 hours
Experimental: (§1) On Day 0, mice were immunized with 250 μg GA (GMA, Mylan Pharmaceuticals, Inc.) and CFA. The GA solution (20 mg/mL) was diluted with Dulbecco's Phosphate-Buffered Saline to 5 mg/mL. The dosing formulation consisted of equal volumes of the diluted GA solution (5 mg/mL) and CFA solution, mixed until well-emulsified. Animals were weighed and allocated to groups. Animals were dosed by injection into four footpads. The injection volume per animal was 0.1 mL (about 10 μL into each front footpad, and 40 μL into each hind footpad).
(§2) Immunized animals were euthanized by cervical dislocation on Day 10 post-immunization. Lymph node cells were isolated from animals and treated with Myelin Basic Protein (MBP, a negative control), Concanavalin A (ConA, a positive control) or GA as shown in Table 16. Lymph nodes in the axillary and popliteal regions were removed aseptically in a purifier clean bench. […] The LN were then washed 3 times with −5 mL of RPMI medium, and isolated by pressing the LN with a syringe plunger. […] The cell suspension was centrifuged at about 200×g for 10 minutes at about 4° C. and re-suspended in ice cold enriched DCCM-1 medium. Cells were seeded in 96-well tissue culture plates.
(§3) LN cells isolated from GA-immunized animals were stimulated with GA (GMA, Mylan Pharmaceuticals, Inc.) at concentrations as indicated in Tables 16 and 17. A positive control was prepared by treating LN cells with 2.5 μg/mL concavalin A (ConA, a non-specific T cell stimulant). Myelin basic protein (MBP, 10 μg/mL) and enriched DCCM-1 medium served as negative controls. The cells from all groups each were stimulated with the same GA lot. Each reaction was set up in triplicate.
(§4) After incubation at about 37° C. in a humidified CO2 incubator for 6 hours, the cells were lysed for total RNA isolation. Total RNA was isolated from treated LN cells using SV 96 Total RNA Isolation System according to the manufacturer's protocol (Promega, Cat. #Z3500). Cells were washed once with Phosphate Buffered Saline (PBS) and lysed in RNA lysis buffer. The lysate was transferred to wells of the SV 96 binding plate. Samples were washed with RNA wash solution and treated with DNase. Total RNA was eluted with nuclease-free water from the binding plate.
(§5) After the reverse transcriptase reaction was completed, cDNA samples were used directly for real-time PCR to measure the response biomarker mRNA levels produced by the stimulated cells. […] All probes for target genes contained FAM dye, and probes for the internal control contained VIC®/MGB dye. Samples will be prepared and run in 96-well plates using a Real-Time PCR system (7500, Life Technologies). This system allows direct detection of PCR-product formation by measuring the increase in fluorescent emission continuously during the PCR reaction. A relative quantitation method was used to analyze changes in mouse IL-2, IL-4, IL-5, IL-10, IL-13, IFN-γ and TNF-α expression in GA-treated samples relative to the untreated control (enriched DCCM-1 treated) samples. The Real-Time PCR program was:
(§6) The levels of mouse cytokine amplicons (IL-2, IL-4, IL-5, IL-10, IL-13, mIFN-γ and TNF-α) were normalized to internal probe levels (GAPDH) from the same samples. The following equations were used to calculate the relative increase in response to GA stimulation compared to the control sample: ΔCT=CT_target−CT_reference ΔΔCT=−ΔCT_Treated−CT_VC

[3] = tested on: IFN-γ mRNA in LN cells; test: IFN-γ mRNA by real-time PCR in LN cells of GA-immunized CD-1, BALB/cByJ, SJL/J mice (Example III); conditions: 6 hours
Experimental: as §1, §2, §3, §4, §5, §6

[4] = BALB/cByJ, immunized GA Intraplantar
[5] = BALB/cByJ, immunized GA Lower Limb
[6] = BALB/cByJ, immunized Mannitol Intraplantar
[7] = C57BL10J, immunized GA Intraplantar
[8] = C57BL10J, immunized GA Lower Limb
[9] = C57BL10J, immunized Mannitol Intraplantar
[10] = CD-1, immunized GA Intraplantar
[11] = CD-1, immunized Mannitol Intraplantar
[12] = Group 1C: CD-1, GA-immunized, stimulation 2.5 μg/mL
[13] = Group 2C: BALB/cByJ, GA-immunized, stimulation 2.5 μg/mL
[14] = Group 3C: SJL/J, GA-immunized, stimulation 2.5 μg/mL
[15] = Group 1C: CD-1, GA-immunized, stimulation 0.3 μg/mL
[16] = Group 1C: CD-1, GA-immunized, stimulation 1 μg/mL
[17] = Group 1C: CD-1, GA-immunized, stimulation 3 μg/mL
[18] = Group 1C: CD-1, GA-immunized, stimulation 10 μg/mL
[19] = Group 2C: BALB/cByJ, GA-immunized, stimulation 0.3 μg/mL
[20] = Group 2C: BALB/cByJ, GA-immunized, stimulation 1 μg/mL
[21] = Group 2C: BALB/cByJ, GA-immunized, stimulation 3 μg/mL
[22] = Group 2C: BALB/cByJ, GA-immunized, stimulation 10 μg/mL
[23] = Group 3C: SJL/J, GA-immunized, stimulation 0.3 μg/mL
[24] = Group 3C: SJL/J, GA-immunized, stimulation 1 μg/mL
[25] = Group 3C: SJL/J, GA-immunized, stimulation 3 μg/mL
[26] = Group 3C: SJL/J, GA-immunized, stimulation 10 μg/mL

Concanavalin A [ConA, reference compound]
IL-5 secretion response ratio (treated cell medium to control DCCM1 medium) [1, 4]: 22.09 | IL-5 secretion response ratio (treated cell medium to control DCCM1 medium) [1, 5]: 14.24 | IL-5 secretion response ratio (treated cell medium to control DCCM1 medium) [1, 6]: 13.33 | IL-5 secretion response ratio (treated cell medium to control DCCM1 medium) [1, 7]: 8.16 | IL-5 secretion response ratio (treated cell medium to control DCCM1 medium) [1, 8]: 5.24 | IL-5 secretion response ratio (treated cell medium to control DCCM1 medium) [1, 9]: 3.93 | IL-5 secretion response ratio (treated cell medium to control DCCM1 medium) [1, 10]: 13.49 | IL-5 secretion response ratio (treated cell medium to control DCCM1 medium) ([1]; CD-1, immunized GA Lower Limb): 6.35 | IL-5 secretion response ratio (treated cell medium to control DCCM1 medium) [1, 11]: 7.11 | IL-4 mRNA Expression [2, 12]: 23.8 fold change vs control | IL-4 mRNA Expression [2, 13]: 27.2 fold change vs control | IL-4 mRNA Expression [2, 14]: 29.2 fold change vs control | IFN-γ mRNA Expression [3, 12]: 4.0 fold change vs control | IFN-γ mRNA Expression [3, 13]: 1.4 fold change vs control | IFN-γ mRNA Expression [3, 14]: 1.4 fold change vs control

L-glutamic acid polymer with L-alanine, L-lysine and L-tyrosine, acetate (salt) [GA]
IL-5 secretion, dose response to GA (in words) ([1]; BALB/cByJ cells and CD1 cells): dose-dependent manner | IL-4 mRNA Expression [2, 15]: 1.6 fold change vs control | IL-4 mRNA Expression [2, 16]: 4.7 fold change vs control | IL-4 mRNA Expression [2, 17]: 6.1 fold change vs control | IL-4 mRNA Expression [2, 18]: 11.2 fold change vs control | IL-4 mRNA Expression [2, 19]: 4.2 fold change vs control | IL-4 mRNA Expression [2, 20]: 6.5 fold change vs control | IL-4 mRNA Expression [2, 21]: 10.1 fold change vs control | IL-4 mRNA Expression [2, 22]: 9.8 fold change vs control | IL-4 mRNA Expression [2, 23]: 2.0 fold change vs control | IL-4 mRNA Expression [2, 24]: 5.2 fold change vs control | IL-4 mRNA Expression [2, 25]: 10.0 fold change vs control | IL-4 mRNA Expression [2, 26]: 15.3 fold change vs control | IFN-γ mRNA Expression [3, 15]: 1.6 fold change vs control | IFN-γ mRNA Expression [3, 16]: 2.8 fold change vs control | IFN-γ mRNA Expression [3, 17]: 4.3 fold change vs control | IFN-γ mRNA Expression [3, 18]: 3.1 fold change vs control | IFN-γ mRNA Expression [3, 19]: 1.2 fold change vs control | IFN-γ mRNA Expression [3, 20]: 1.7 fold change vs control | IFN-γ mRNA Expression [3, 21]: 2.8 fold change vs control | IFN-γ mRNA Expression [3, 22]: 2.2 fold change vs control | IFN-γ mRNA Expression [3, 23]: 0.9 fold change vs control | IFN-γ mRNA Expression [3, 24]: 1.7 fold change vs control | IFN-γ mRNA Expression [3, 25]: 2.5 fold change vs control | IFN-γ mRNA Expression [3, 26]: 2.2 fold change vs control

B1: MBP: myelin basic protein, a negative control (protein, UniProt P02686 1-304, looked up)
Myelin basic protein: MGNHAGKRELNAEKASTNSETNRGESEKKRNLGELSRTTSEDNEVFGEADANQNNGTSSQDTAVTDSKRTADPKNAWQDAHPADPGSRPHLIRLFSRDAPGREDNTFKDRPSESDELQTIQEDSAATSESLDVMASQKRPSQRHGSKYLATASTMDHARHGFLPRHRDTGILDSIGRFFGGDRGAPKRGSGKDSHHPARTAHYGSLPQKSHGRTQDENPVVHFFKNIVTPRTPPPSQGKGRGLSLSRFSWGAEGQRPGFGYGGRASDYKSAHKGFKGVDAQGTLSKIFKLGGRDSRSGSPMARR
IL-5 secretion response ratio (treated cell medium to control DCCM1 medium) [1, 4]: 1.22 | IL-5 secretion response ratio (treated cell medium to control DCCM1 medium) [1, 5]: 0.99 | IL-5 secretion response ratio (treated cell medium to control DCCM1 medium) [1, 6]: 1.07 | IL-5 secretion response ratio (treated cell medium to control DCCM1 medium) [1, 7]: 1.31 | IL-5 secretion response ratio (treated cell medium to control DCCM1 medium) [1, 8]: 0.85 | IL-5 secretion response ratio (treated cell medium to control DCCM1 medium) [1, 9]: 0.99 | IL-5 secretion response ratio (treated cell medium to control DCCM1 medium) [1, 10]: 1.33 | IL-5 secretion response ratio (treated cell medium to control DCCM1 medium) ([1]; CD-1, immunized GA Lower Limb): 1.00 | IL-5 secretion response ratio (treated cell medium to control DCCM1 medium) [1, 11]: 1.16 | IL-4 mRNA Expression [2, 18]: 0.6 fold change vs control | IL-4 mRNA Expression [2, 22]: 1.1 fold change vs control | IL-4 mRNA Expression [2, 26]: 0.5 fold change vs control | IFN-γ mRNA Expression [3, 18]: 0.8 fold change vs control | IFN-γ mRNA Expression [3, 22]: 0.2 fold change vs control | IFN-γ mRNA Expression [3, 26]: 0.2 fold change vs control
